Active and inactive are the calls of the source.

For orientation: IC50 means the concentration that gives 50% inhibition. By EC50 is commonly meant the concentration at which the effect is half-maximal. As usually defined, the inhibition is the change of the read-out against control, counted positive when it falls.

Data set [1] addresses T1, Glycogen synthase kinase-3 (Sus scrofa, UniProt B2LUN4+I6LNT8). Nature of the data set: Inhibition of porcine brain GSK-3alpha/beta using YRRAAVPPSPSLSRHSSPHQpSEDEEE as substrate incubated for 30 mins in presence of ATP by scintillation counting method. Format: tissue-based.
Data set [2] has as its system HT-22. Briefly: Neuroprotective activity against glutamate-induced cell death in mouse HT-22 cells treated for 24 hrs by MTS assay. Type of data set: functional, cell-based. The note with it: HT-22, 24 h. Background: Formazan colour is commonly taken as a measure of viable cells.
In another data set the test system is U2OS. Nature of the data set: Induction of PI3K/mTor-dependent autophagy in human U2OS cells assessed as number of LC3 foci per cell at 10 uM measured after 4 hrs. The note with it: filed as activator. Format: cell-based.
Data set [3] deals with T2, Cannabinoid receptor 1 (Homo sapiens, UniProt P21554). Briefly: Antagonist activity at CP-55940-activated CB1 receptor (unknown origin) at 10 uM by beta-arrestin assay relative to control. Type of data set: functional. On the set-up: scale not given: the % may be the effect or the level left.
A short description of data set [4]: Drug metabolism in human liver microsomes assessed as GSH reduction metabolite at 50 uM incubated for 60 mins in presence of 13C2,15N-GSH by LC-MS/MS analysis. Type of data set: ADME, Microsome. The note with it: 1 h. (In general: Microsomes from liver hold many membrane-bound enzymes, among them those of drug oxidation.)
The nature of data set [5]: Neurotoxicity against mouse HT-22 cells assessed as cell survival at 20 uM treated for 24 hrs by MTS assay. Particulars: ht-22, 24 h. Format: toxicity, cell-based.
The target of data set [6] is Dual specificity protein kinase CLK4 (Mus musculus, UniProt O35493). Nature of the data set: Inhibition of GST-fused mouse recombinant CLK4 expressed in Escherichia coli using GRSRSRSRSRSR peptide as substrate incubated for 30 mins in presence of ATP by scintillation counting method.
Data set [7] deals with Dual specificity protein kinase CLK3 (Mus musculus, UniProt O35492). Nature of the data set: Inhibition of GST-fused mouse recombinant CLK3 expressed in Escherichia coli using GRSRSRSRSRSR peptide as substrate incubated for 30 mins in presence of ATP by scintillation counting method.
Data set [8] concerns the target Dual specificity protein kinase CLK1 (Mus musculus, UniProt P22518). Briefly: Inhibition of GST-fused mouse recombinant CLK1 expressed in Escherichia coli using GRSRSRSRSRSR peptide as substrate incubated for 30 mins in presence of ATP by scintillation counting method.
Data set [9] has as its target Dual specificity protein kinase CLK2 (Mus musculus, UniProt O35491). Nature of the data set: Inhibition of mouse recombinant GST-fused CLK2 expressed in Escherichia coli using GRSRSRSRSRSR peptide as substrate incubated for 30 mins in presence of ATP by scintillation counting method.
The target of data set [10] is T3, Dual specificity tyrosine-phosphorylation-regulated kinase 1A (Homo sapiens, UniProt Q13627). Briefly: Inhibition of GST-fused human recombinant DYRK1A expressed in Escherichia coli using GRSRSRSRSRSR peptide as substrate incubated for 30 mins in presence of ATP by scintillation counting method.
Data set [11] has as its target Dual specificity tyrosine-phosphorylation-regulated kinase 1B (Homo sapiens, UniProt Q9Y463).
Data set [12] has as its target T4, Dual specificity tyrosine-phosphorylation-regulated kinase 2 (Homo sapiens, UniProt Q92630).
T4 sequence (Q92630 whole entry): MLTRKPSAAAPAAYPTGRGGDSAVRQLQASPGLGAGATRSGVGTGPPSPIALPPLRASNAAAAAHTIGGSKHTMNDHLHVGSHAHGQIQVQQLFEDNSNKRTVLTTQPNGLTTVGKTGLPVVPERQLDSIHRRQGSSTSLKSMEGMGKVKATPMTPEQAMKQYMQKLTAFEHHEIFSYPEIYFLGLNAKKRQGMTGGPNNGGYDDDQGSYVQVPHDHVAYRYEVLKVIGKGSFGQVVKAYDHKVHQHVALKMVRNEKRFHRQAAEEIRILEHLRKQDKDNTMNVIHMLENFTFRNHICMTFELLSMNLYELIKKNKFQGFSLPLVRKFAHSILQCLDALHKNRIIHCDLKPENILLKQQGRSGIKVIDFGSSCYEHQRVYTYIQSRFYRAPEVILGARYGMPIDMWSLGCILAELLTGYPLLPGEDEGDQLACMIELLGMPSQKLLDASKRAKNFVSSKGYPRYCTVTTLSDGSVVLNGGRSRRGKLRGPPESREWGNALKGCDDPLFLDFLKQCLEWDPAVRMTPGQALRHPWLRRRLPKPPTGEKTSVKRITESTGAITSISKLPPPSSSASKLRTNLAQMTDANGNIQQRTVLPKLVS
Nature of the data set: Inhibition of GST-fused human recombinant DYRK2 expressed in Escherichia coli using GRSRSRSRSRSR peptide as substrate incubated for 30 mins in presence of ATP by scintillation counting method.

Data set [13] has as its target T5, Dual specificity tyrosine-phosphorylation-regulated kinase 3 (Homo sapiens, UniProt O43781).
T5 sequence (O43781 whole entry): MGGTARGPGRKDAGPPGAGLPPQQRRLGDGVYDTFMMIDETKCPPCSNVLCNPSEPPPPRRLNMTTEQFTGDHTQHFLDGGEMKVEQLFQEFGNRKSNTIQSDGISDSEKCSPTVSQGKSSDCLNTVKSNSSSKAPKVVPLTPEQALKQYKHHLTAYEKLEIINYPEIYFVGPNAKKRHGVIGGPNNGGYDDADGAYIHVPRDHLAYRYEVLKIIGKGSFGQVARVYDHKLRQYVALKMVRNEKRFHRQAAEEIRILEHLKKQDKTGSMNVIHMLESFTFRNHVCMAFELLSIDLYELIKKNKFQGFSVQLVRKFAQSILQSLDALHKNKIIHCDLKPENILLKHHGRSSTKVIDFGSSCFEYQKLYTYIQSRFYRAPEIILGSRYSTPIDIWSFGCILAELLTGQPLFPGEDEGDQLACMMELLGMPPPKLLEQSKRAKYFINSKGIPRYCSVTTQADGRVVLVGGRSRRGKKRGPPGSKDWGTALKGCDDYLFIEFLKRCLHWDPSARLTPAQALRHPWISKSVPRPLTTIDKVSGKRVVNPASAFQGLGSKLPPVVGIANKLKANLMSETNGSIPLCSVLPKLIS
Briefly: Inhibition of GST-fused human recombinant DYRK3 expressed in Escherichia coli using GRSRSRSRSRSR peptide as substrate incubated for 30 mins in presence of ATP by scintillation counting method.

Data set [14] has as its target Serine/threonine-protein kinase pim-1 (Homo sapiens, UniProt P11309). Nature of the data set: Inhibition of human recombinant Pim1 expressed in Escherichia coli using histone H1 as substrate incubated for 30 mins in presence of ATP by scintillation counting method.
For a further data set, the target named is Casein kinase 2 (Homo sapiens, UniProt P67870+P68400+P19784+Q8NEV1). Briefly: Inhibition of human recombinant CK2 using RRRDDDSDDD peptide as substrate incubated for 30 mins in presence of ATP by scintillation counting method. Format: protein assay.
The nature of data set [15]: Neurotoxicity against mouse HT-22 cells assessed as cell survival treated for 24 hrs by MTS assay. Type of data set: toxicity, cell-based.
For data set [16], the system named is HT-22. Briefly: Modulation of CLK1 pre-mRNA splicing in mouse HT-22 cells assessed as inclusion of CLK1 exon 4 by measuring change in threshold cycle at 10 uM measured after 4 hrs by real time PCR analysis. Format: cell-based. Particulars: filed as modulator. (Quantitative PCR measures a nucleic acid by following its amplification.)
The target in data set [17] is T3, Dual specificity tyrosine-phosphorylation-regulated kinase 1A. Nature of the data set: Inhibition of DYRK1A in human SH-SY5Y overexpressing Tau4R cells assessed as phosphorylated Tau Thr212 residue level at 10 uM incubated for 6 hrs by western blot analysis relative to control. Format: cell-based.
The target of data set [18] is T2, Cannabinoid receptor 1. Briefly: Antagonist activity at CP-55940-activated CB1 receptor (unknown origin) by beta-arrestin assay. Format: functional.
For data set [19], the system named is HT-22. Briefly: Induction of PI3K/mTor-dependent autophagy in mouse HT-22 cells assessed as number of LC3 foci per cell at 10 uM incubated for 24 hrs using Lamp-1 staining based immunofluorescence microscopy. The note with it: filed as activator.
Data set [20] deals with HT-22. Nature of the data set: Induction of PI3K/mTor-dependent autophagy in mouse HT-22 cells assessed as number of LC3 foci per cell at 10 uM incubated for 24 hrs using Anti-LC3 staining based immunofluorescence microscopy. The note with it: filed as activator.
For data set [21], the target named is T2, Cannabinoid receptor 1. Nature of the data set: […] allosteric modulation of CB1 receptor (unknown origin) expressed in HEK293 cell membrane assessed as inhibition of CP-55940-induced [35S]-GTPgammaS binding at 10 uM in presence of GDP by liquid scintillation counting method. Format: functional, cell membranes. The note with it: DDE = dose-dependent effect.

For data set [22], the target named is T2, Cannabinoid receptor 1. Briefly: Displacement of [3H]-CP55940 from CB1 receptor (unknown origin) expressed in HEK293 cell membrane assessed as dissociation constant at 10 uM by liquid scintillation counting method. Particulars: filed as modulator. Type of data set: cell membranes.
Data set [23] concerns the target T1, Glycogen synthase kinase-3. Nature of the data set: Inhibition of porcine brain GSK-3alpha/beta at 10 uM using YRRAAVPPSPSLSRHSSPHQpSEDEEE as substrate incubated for 30 mins in presence of ATP by scintillation counting method. Format: tissue-based.

T2 sequence (P21554 whole entry): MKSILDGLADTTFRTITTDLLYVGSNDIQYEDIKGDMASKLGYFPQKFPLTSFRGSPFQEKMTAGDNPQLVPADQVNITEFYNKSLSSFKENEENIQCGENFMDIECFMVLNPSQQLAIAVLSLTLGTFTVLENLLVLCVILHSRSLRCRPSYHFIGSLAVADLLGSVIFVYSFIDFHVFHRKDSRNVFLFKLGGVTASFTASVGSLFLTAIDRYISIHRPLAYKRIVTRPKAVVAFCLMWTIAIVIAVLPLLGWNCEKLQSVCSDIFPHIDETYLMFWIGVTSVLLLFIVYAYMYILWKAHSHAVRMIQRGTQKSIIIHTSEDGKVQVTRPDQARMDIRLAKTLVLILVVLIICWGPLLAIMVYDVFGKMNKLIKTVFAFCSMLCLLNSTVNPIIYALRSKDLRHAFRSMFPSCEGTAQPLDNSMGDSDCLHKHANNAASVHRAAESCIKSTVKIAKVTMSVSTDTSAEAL
Chain of Dual specificity tyrosine-phosphorylation-regulated kinase 1B (Q9Y463 whole entry): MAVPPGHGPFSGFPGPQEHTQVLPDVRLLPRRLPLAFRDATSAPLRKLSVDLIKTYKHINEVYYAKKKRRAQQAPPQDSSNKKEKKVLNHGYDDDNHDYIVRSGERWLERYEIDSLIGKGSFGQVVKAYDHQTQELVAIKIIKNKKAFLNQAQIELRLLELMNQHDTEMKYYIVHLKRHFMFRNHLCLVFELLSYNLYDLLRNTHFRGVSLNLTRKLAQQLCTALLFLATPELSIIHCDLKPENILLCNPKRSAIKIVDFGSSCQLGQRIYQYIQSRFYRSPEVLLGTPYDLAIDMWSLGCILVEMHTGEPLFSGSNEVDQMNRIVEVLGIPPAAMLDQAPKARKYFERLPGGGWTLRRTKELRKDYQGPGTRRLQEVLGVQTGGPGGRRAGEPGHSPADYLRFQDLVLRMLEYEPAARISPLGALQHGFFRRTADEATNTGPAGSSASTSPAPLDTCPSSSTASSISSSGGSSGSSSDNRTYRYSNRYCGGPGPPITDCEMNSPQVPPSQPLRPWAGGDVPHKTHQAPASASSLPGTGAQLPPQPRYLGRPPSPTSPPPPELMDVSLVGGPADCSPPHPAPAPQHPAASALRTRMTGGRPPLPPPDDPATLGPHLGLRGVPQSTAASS
Chain of Dual specificity protein kinase CLK3 (O35492 whole entry, the tested form may be a part): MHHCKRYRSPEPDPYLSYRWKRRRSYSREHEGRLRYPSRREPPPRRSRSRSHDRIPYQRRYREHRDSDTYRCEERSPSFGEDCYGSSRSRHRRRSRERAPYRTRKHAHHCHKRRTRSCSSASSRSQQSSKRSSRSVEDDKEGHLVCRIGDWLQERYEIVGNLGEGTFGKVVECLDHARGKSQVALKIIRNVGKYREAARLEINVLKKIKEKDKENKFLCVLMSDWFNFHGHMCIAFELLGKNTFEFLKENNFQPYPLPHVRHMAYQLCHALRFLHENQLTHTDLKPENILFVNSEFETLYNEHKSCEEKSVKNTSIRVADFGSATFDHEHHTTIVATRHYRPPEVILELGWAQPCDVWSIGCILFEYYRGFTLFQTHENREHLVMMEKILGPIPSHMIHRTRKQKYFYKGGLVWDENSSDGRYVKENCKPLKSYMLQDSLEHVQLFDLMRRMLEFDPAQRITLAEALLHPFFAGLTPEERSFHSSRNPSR
Chain of Dual specificity protein kinase CLK2 (O35491 whole entry, the tested form may be a part): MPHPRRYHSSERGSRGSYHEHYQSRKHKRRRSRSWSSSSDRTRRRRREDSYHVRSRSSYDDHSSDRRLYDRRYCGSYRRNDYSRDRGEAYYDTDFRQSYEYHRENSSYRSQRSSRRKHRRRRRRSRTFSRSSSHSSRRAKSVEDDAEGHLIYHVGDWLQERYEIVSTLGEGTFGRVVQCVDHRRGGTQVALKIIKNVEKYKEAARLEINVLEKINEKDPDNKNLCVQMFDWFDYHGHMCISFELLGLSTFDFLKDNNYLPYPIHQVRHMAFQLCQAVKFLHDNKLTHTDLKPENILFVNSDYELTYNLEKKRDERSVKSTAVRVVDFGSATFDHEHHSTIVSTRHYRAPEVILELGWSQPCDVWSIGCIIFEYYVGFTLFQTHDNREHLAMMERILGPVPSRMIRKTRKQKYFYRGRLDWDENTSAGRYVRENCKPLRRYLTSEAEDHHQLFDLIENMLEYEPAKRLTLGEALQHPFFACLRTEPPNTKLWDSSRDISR
Chain of Dual specificity protein kinase CLK4 (O35493 whole entry, the tested form may be a part): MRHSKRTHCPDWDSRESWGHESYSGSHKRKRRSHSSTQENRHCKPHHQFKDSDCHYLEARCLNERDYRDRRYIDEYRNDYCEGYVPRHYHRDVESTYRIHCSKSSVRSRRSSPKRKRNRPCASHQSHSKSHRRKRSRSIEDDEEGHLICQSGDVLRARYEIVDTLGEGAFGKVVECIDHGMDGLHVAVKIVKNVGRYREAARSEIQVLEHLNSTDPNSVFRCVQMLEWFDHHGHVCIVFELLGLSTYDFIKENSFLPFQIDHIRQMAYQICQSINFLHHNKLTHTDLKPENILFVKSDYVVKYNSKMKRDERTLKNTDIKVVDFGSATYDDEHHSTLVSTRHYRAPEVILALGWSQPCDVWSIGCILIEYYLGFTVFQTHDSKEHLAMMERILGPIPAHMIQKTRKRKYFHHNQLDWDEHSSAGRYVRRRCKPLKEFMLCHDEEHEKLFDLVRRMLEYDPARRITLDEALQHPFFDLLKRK
Chain of Dual specificity protein kinase CLK1 (P22518 whole entry, the tested form may be a part): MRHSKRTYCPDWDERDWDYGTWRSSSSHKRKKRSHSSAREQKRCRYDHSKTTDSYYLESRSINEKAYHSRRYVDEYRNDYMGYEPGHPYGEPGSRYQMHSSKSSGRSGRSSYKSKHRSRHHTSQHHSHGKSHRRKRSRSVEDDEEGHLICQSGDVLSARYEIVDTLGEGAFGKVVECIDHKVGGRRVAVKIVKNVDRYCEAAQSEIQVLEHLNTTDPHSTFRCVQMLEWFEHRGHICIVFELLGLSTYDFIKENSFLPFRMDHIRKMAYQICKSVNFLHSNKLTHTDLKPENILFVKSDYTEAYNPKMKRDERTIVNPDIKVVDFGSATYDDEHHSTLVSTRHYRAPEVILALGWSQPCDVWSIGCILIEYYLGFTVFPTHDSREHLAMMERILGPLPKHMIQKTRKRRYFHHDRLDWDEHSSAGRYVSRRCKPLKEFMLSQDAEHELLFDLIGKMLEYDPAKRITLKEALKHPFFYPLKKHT
Chain of Serine/threonine-protein kinase pim-1 (P11309 whole entry): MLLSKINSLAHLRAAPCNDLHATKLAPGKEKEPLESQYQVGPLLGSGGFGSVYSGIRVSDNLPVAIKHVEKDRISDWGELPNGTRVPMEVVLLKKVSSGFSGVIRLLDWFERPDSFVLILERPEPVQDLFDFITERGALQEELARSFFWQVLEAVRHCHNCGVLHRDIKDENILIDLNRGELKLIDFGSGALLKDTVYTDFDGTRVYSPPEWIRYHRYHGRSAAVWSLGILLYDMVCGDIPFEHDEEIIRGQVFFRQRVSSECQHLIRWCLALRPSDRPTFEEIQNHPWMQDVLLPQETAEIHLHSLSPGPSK

As for `COc1cc(/C=C2\N=C(Nc3ccc(N4CCN(C)CC4)cc3)NC2=O)ccc1O`, the IC50 in data set [1] worked out at 200 nM. The EC50 with HT-22 [2] is more than 20000 nM. For the same compound, the Activity is 22 in the data set with U2OS, 14.3% on Cannabinoid receptor 1 [3] and “Non-Toxic” in data set [5]. The Drug metabolism entry in data set [4] is “Metabolite_Notdetected”.

In the case of `CCCSC1=N/C(=C\c2ccc3c(c2)OCO3)C(=O)N1`, the IC50 in data set [1] turned out to be 1400 nM; in data set [6], 27 nM; in [7] it was 3100 nM; in [8] it was 34 nM; in [9] it was 110 nM; in data set [10] it was 40 nM. Moreover, the IC50 in data set [11] was 90 nM; in data set [12], 37 nM; in data set [13] it was 510 nM; in [14] it was 950 nM; at Casein kinase 2, 1700 nM. In addition, the EC50 at 24 h in [15] is more than 20000 nM. In addition, the Activity in the data set on U2OS is 7.3; at Cannabinoid receptor 1 [3] it was -2.6%; in data set [5], “Non-Toxic”. The deltaCT with HT-22 [16] amounted to 2.48. Also, the inhibition in [17] is -2.4%.

Turning to `COc1cc(/C=C2\N=C(Nc3ccccc3)NC2=O)ccc1O`, the concentration for half-maximal inhibition (IC50) turned out to be 1100 nM in [1]; 23 nM in data set [6]; 610 nM in data set [7]; 21 nM in [8]; 140 nM in data set [9]; 70 nM in data set [10]. Also, the IC50 is 62 nM in [11]; 33 nM in [12]; 120 nM in [13]; 180 nM in data set [14]; 620 nM at Casein kinase 2; 4700 nM at Cannabinoid receptor 1 [18]. In data set [15], the half-maximal inhibitory concentration (IC50) at 24 h was more than 20000 nM. In the data set on HT-22 [2], this compound showed a concentration for a half-maximal effect (EC50) of 1280 nM. Further, the Activity in the data set with U2OS came to 11.7; on Cannabinoid receptor 1 [3], 1.6%. For the same compound, the result in the data set with HT-22 [19] and in the data set on HT-22 [20] was Active.

As to `O=C1NC(Nc2ccccc2)=N/C1=C\c1ccc2c(c1)OCCCO2`, the Activity entry at Cannabinoid receptor 1 [21] was “Dde”; with U2OS it was 5.6; at Cannabinoid receptor 1 [3] (filed as antagonist), 89.3%; in data set [5], “Non-Toxic”. Besides, the IC50 in data set [6], in data set [8], in [11], in data set [12] and in data set [14] was more than 10000 nM each time. In the data set on HT-22 [2], this compound returned an EC50 of 12500 nM. Further, the Kb at Cannabinoid receptor 1 [22] came to 1200 nM.

`O=C1NC(Nc2ccc(N3CCCCC3)cc2)=N/C1=C\c1ccc2c(c1)OCO2`: the IC50 was more than 10000 nM in data set [1]; 1500 nM in data set [6]; 4200 nM in data set [8]; more than 10000 nM in [9]; 700 nM in data set [10]; 2100 nM in data set [11]. The half-maximal inhibitory concentration (IC50) in data set [12] is 230 nM; in [13], more than 10000 nM; at Cannabinoid receptor 1 [18], 91.3 nM. Also, the Activity result was “Dde” on Cannabinoid receptor 1 [21], 11.4 in the data set with U2OS, 81.7% on Cannabinoid receptor 1 [3] (filed as antagonist) and “Non-Toxic” in data set [5]. The same compound gave an EC50 in the data set with HT-22 [2] of 660 nM. In addition, at Cannabinoid receptor 1 [22], the Kb amounted to 3300 nM.

`O=C1N=C(Nc2ccccc2)S/C1=C\c1ccc2c(c1)OCO2`: the half-maximal inhibitory concentration (IC50) in data set [6] was 1200 nM; in data set [7], 430 nM; in data set [8] it was 800 nM; in [9] it was more than 10000 nM; in data set [10], 10000 nM; in data set [11], 610 nM. In addition, the half-inhibitory concentration (IC50) was more than 10000 nM in data set [12], 2500 nM in [23], more than 10000 nM in data set [14] and 2500 nM on Casein kinase 2. In addition, the concentration giving a half-maximal response (EC50) at 24 h in [15] was more than 20000 nM. In addition, the Activity in the data set on U2OS is 5.9; at Cannabinoid receptor 1 [3] it was -5.9%. Besides, in the data set with HT-22 [16], the deltaCT was -0.09.

Source of the values: ChEMBL document CHEMBL5126517, “Structure-Activity Relationship in the Leucettine Family of Kinase Inhibitors” (J Med Chem, 2022).
